Experimental findings from ChEMBL document CHEMBL1201862, “PubChem BioAssay data set” (2004) are described below.

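Results reflect a 48-hour exposure of cells in 96-well plates to compound at five concentrations. GI50: concentration for 50% inhibition of growth.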 Activity calls are given as the source filed them. No stated cut-off is given here; in the data, active = GI50 up to about 1.1 µM and inactive = higher. A value given as a limit tells only on which side of the number the result lay.

Test systems include XF498; M19-MEL; LXFL 529; DMS-273; DLD-1; KM-20L2; SNB-78; HOP-18; RXF 631.
Holding throughout (experiment): NCI tumour cell line growth inhibition, 48 h

On to `C=CCCOC(=O)CO[N+](=O)[O-]`, for which the GI50 in the test with XF498, with M19-MEL, with LXFL 529, in the test with DMS-273, with DLD-1 and with KM-20L2 was > 100 µM (inactive) throughout.
`COC(=O)C(Cc1nc2ccccc2nc1O)/C(=N\NC(C)(C)C)C(=O)Nc1c(C)cc(Br)cc1C` (configuration not stated): the GI50 with M19-MEL is 45.1 µM (inactive); with LXFL 529 it was 21.1 µM (inactive); with DLD-1, 22.2 µM (inactive); with SNB-78, 22.6 µM (inactive).
For `COc1ccc(-c2cc(O)c3cc4c(cc3n2)OCO4)cc1`, the GI50 in the test with XF498, in the test on M19-MEL, with LXFL 529, in the test on DMS-273, in the test on DLD-1 and with KM-20L2 was > 100 µM (inactive) throughout.
As for `COc1cc([C@@H]2c3cc4c(cc3C[C@H]3COC(=O)[C@@H]32)OCO4)cc(OC)c1OC` [DESOXYPODOPHYLLOTOXIN], the GI50 in the test with XF498 is 0.00859 µM (active); in the test with HOP-18 it was 33.6 µM (inactive); in the test on M19-MEL it was 0.00986 µM (active); with DMS-273, 0.00728 µM (active); with DLD-1, 0.00843 µM (active); with KM-20L2, 0.00703 µM (active). In addition, the GI50 in the test on SNB-78 is 0.00875 µM (active).
For the compound `CC1OC(n2cc(F)c(=O)[nH]c2=O)C=CC1=O` (configuration not stated), the GI50 is 18.3 µM (inactive) in the test with HOP-18; 19.7 µM (inactive) in the test with M19-MEL; 16.6 µM (inactive) in the test on LXFL 529; 18.6 µM (inactive) in the test on DMS-273; 53.8 µM (inactive) with RXF 631; 18.1 µM (inactive) in the test on DLD-1. Moreover, the GI50 in the test on KM-20L2 is 18.4 µM (inactive); in the test with SNB-78 it was 18.7 µM (inactive).
Consider `CSC1NC=Nc2c1sc(=S)n2-c1ccccc1` (configuration not stated), for which the GI50 in the test with XF498, in the test on HOP-18, with M19-MEL, in the test on LXFL 529, in the test with DMS-273 and in the test on DLD-1 was > 100 µM (inactive) each time. In addition, the figures for the GI50 with KM-20L2 and with SNB-78 were > 100 µM (inactive) and 43.5 µM (inactive), respectively.
On to `Nc1nc(N)c(CCCCc2ccccc2)c(C=O)n1`, for which the GI50 in the test with HOP-18 was 40.8 µM (inactive); in the test on M19-MEL, 14.8 µM (inactive); in the test on DMS-273, 17.2 µM (inactive); with RXF 631, 43.5 µM (inactive); in the test with DLD-1, 20.1 µM (inactive); in the test with KM-20L2 it was 30.6 µM (inactive). Besides, in the test with SNB-78, the GI50 was 22.9 µM (inactive).
Take `N#CCC(=O)N/N=C(\CCN1CCCC1)CC(c1ccccc1)c1c(O)c2ccccc2oc1=O` (configuration not stated): the GI50 was > 100 µM (inactive) in the test with XF498; > 100 µM (inactive) in the test on HOP-18; 78.7 µM (inactive) with M19-MEL; > 100 µM (inactive) with LXFL 529; > 100 µM (inactive) in the test with RXF 631; > 100 µM (inactive) in the test on DLD-1. In addition, in the test with KM-20L2, the GI50 was > 100 µM (inactive).
With `CC1(C2CCC3(C)C(C2)C3Sc2ccccc2)OCCO1` (configuration not stated), the GI50 with XF498 was 17.1 µM (inactive); in the test with M19-MEL, 19.8 µM (inactive); in the test on LXFL 529, 37.2 µM (inactive); with DMS-273, 19.9 µM (inactive); in the test with DLD-1, 29 µM (inactive); in the test with SNB-78 it was 40 µM (inactive).
`CC1CC2OC(=O)CC2C[C@@H]1O[Si](C)(C)C(C)(C)C` (some centres not stated): the GI50 is > 100 µM (inactive) in the test with HOP-18; 42.8 µM (inactive) in the test with M19-MEL; 68.7 µM (inactive) with LXFL 529; 33.7 µM (inactive) in the test with DMS-273; 44.5 µM (inactive) with RXF 631; 83.4 µM (inactive) with DLD-1. For the same compound, the GI50 was 46.3 µM (inactive) with KM-20L2 and > 100 µM (inactive) in the test on SNB-78.
Consider `NC1=NC(c2ccccc2)CC(c2cc(Cl)ccc2O)=N1` (configuration not stated), for which the GI50 in the test on XF498 is 19.6 µM (inactive); in the test on HOP-18, 17.7 µM (inactive); with M19-MEL, 14.5 µM (inactive); in the test with LXFL 529, 15 µM (inactive); in the test with DMS-273, 13 µM (inactive); with DLD-1, 13.2 µM (inactive). Also, the values for the GI50 in the test with KM-20L2 and with SNB-78 were 17.4 µM (inactive) and 19.5 µM (inactive), respectively.
With `Cc1ccc(C2=Nc3ccccc3NC(=O)C2)cc1`, the GI50 with XF498 is 35.9 µM (inactive); with HOP-18, > 100 µM (inactive); in the test with M19-MEL it was > 100 µM (inactive); in the test with LXFL 529, > 100 µM (inactive); in the test with DMS-273, > 100 µM (inactive); in the test on DLD-1, > 100 µM (inactive). For the same compound, the GI50 with KM-20L2 was > 100 µM (inactive); in the test on SNB-78 it was 72.6 µM (inactive).
Take `CCOC(=O)[C@H](Cc1ccccc1)NC(=O)c1nc[nH]c1[N+](=O)[O-]`: the GI50 with M19-MEL, with LXFL 529, with DMS-273 and with DLD-1 was > 100 µM (inactive) throughout.
In the case of `C=C1C(=O)O[C@H]2C[C@@H](C)[C@@H]3CC(=O)OC[C@@]3(C)CC12` (some centres not stated), the GI50 with HOP-18 is 36.5 µM (inactive); in the test with M19-MEL, 34.5 µM (inactive); in the test with DMS-273, 28.6 µM (inactive); in the test with DLD-1, 23.4 µM (inactive); with KM-20L2, 18.5 µM (inactive).
As to `CCOC(=O)c1c(C)c(C)n2c1NC(=O)C2`, the GI50 in the test with XF498 was 0.073 µM (active); in the test with HOP-18 it was > 100 µM (inactive); in the test with M19-MEL, > 100 µM (inactive); with LXFL 529, > 100 µM (inactive); in the test with DMS-273 it was > 100 µM (inactive); in the test with RXF 631, > 100 µM (inactive). Further, the GI50 in the test with DLD-1 and with KM-20L2 was > 100 µM (inactive) throughout.
As to `CCC1=CCN(c2cc(C)ccn2)OC1c1ccccc1` (configuration not stated), the GI50 in the test on XF498 is 22.9 µM (inactive); in the test on HOP-18, > 100 µM (inactive); with M19-MEL, 34.4 µM (inactive); with LXFL 529 it was 27 µM (inactive); in the test with DMS-273, 43.6 µM (inactive); in the test with RXF 631, 25.4 µM (inactive). The GI50 was 34 µM (inactive) in the test with DLD-1, 39.2 µM (inactive) in the test with KM-20L2 and 43.9 µM (inactive) in the test with SNB-78.
As to `C[C@@H]1C[C@H]2[C@@H]3CCC4=CC(=O)C=C[C@]4(C)[C@@]3(F)[C@@H](O)C[C@]2(C)[C@@]1(O)C(=O)CO` [DEXAMETHASONE], the GI50 in the test with M19-MEL, in the test on LXFL 529, with DLD-1 and with KM-20L2 was > 100 µM (inactive) each time.
Turning to `C=CC1[C@H]2COC(C)(C)O[C@@H]2CC(=O)C1(C)C` (some centres not stated), the GI50 with XF498, with HOP-18, in the test on M19-MEL, in the test with LXFL 529, in the test on DMS-273 and in the test with DLD-1 was > 100 µM (inactive) throughout. Further, the GI50 in the test with KM-20L2 and with SNB-78 was > 100 µM (inactive) each time.
As to `NC(=O)COc1ccccc1`, the GI50 in the test with XF498, in the test with M19-MEL, in the test on LXFL 529, with DMS-273, in the test with RXF 631 and in the test with DLD-1 was > 100 µM (inactive) throughout. Moreover, the GI50 in the test on KM-20L2 and with SNB-78 was > 100 µM (inactive) throughout.
`CCNC(=O)OCc1c(COC(=O)NCC)c(-c2ccc(Cl)c(Cl)c2)n2c1CCC2`: the GI50 in the test with XF498 is 16.1 µM (inactive); in the test with M19-MEL, 23.3 µM (inactive); in the test with LXFL 529, 15.3 µM (inactive); in the test on DMS-273 it was 9.48 µM (inactive); in the test with DLD-1 it was 11.8 µM (inactive); in the test with KM-20L2, 16.9 µM (inactive).
Consider `N#CC1(Cc2ccccc2)CCCCN1C(=O)c1ccccc1` (configuration not stated), for which the GI50 in the test on XF498, in the test on HOP-18, with M19-MEL, in the test with LXFL 529, with DMS-273 and in the test on RXF 631 was > 100 µM (inactive) throughout. The GI50 in the test with DLD-1, with KM-20L2 and in the test on SNB-78 was > 100 µM (inactive) in each case.
With `COc1ccc(/C=C2\Cc3ccccc3C2=O)cc1OC`, the GI50 in the test on XF498 was > 100 µM (inactive); in the test on M19-MEL it was > 100 µM (inactive); in the test on LXFL 529, 75 µM (inactive); with DLD-1 it was > 100 µM (inactive); in the test with KM-20L2, > 100 µM (inactive); in the test with SNB-78, > 100 µM (inactive).
As to `CCOC(=O)CP(=S)(S)c1ccccc1` (configuration not stated), the GI50 was 45.2 µM (inactive) with XF498; > 100 µM (inactive) in the test with M19-MEL; > 100 µM (inactive) in the test on LXFL 529; > 100 µM (inactive) in the test on DMS-273; > 100 µM (inactive) in the test with DLD-1; > 100 µM (inactive) with KM-20L2. Besides, the GI50 with SNB-78 is > 100 µM (inactive).
As for `CC(N)Cc1ccc(F)cc1` (configuration not stated), the GI50 in the test on HOP-18, with LXFL 529, in the test on DMS-273, with RXF 631, in the test on DLD-1 and in the test on KM-20L2 was > 100 µM (inactive) each time. Also, the GI50 in the test with SNB-78 is > 100 µM (inactive).
Consider `O=C1N=C2N=C(c3ccc(Cl)cc3)N(c3ccc(Cl)cc3)N2Sc2ccccc21`, for which the GI50 with XF498 was 40.9 µM (inactive); with HOP-18, > 100 µM (inactive); with M19-MEL it was > 100 µM (inactive); in the test with LXFL 529, > 100 µM (inactive); in the test on DMS-273, 67.1 µM (inactive); in the test on DLD-1, > 100 µM (inactive). Also, the GI50 in the test with KM-20L2 and with SNB-78 was > 100 µM (inactive) throughout.
